# Results: patent US11530226B2, “Azepane inhibitors of menin-MLL interaction” (Janssen Pharmaceutica NV, priority 2016, dated 2022)
# Key:
# [1] = target: T1, terbium chelate-labeled menin / FITC-MBM1 peptide (Menin/MLL) (Homo sapiens, UniProt O00255, T541A); test: Menin/MLL homogenous time-resolved fluorescence (HTRF) assay; format: binding; settings: read-out: (2) Menin HTRF assay (IC50 (nM))
# T1 construct: Menin (a. a. l-610-6×his tag) was labeled with terbium cryptate as follows
# T1 sequence (O00255 with tags, fused parts or gaps T541A): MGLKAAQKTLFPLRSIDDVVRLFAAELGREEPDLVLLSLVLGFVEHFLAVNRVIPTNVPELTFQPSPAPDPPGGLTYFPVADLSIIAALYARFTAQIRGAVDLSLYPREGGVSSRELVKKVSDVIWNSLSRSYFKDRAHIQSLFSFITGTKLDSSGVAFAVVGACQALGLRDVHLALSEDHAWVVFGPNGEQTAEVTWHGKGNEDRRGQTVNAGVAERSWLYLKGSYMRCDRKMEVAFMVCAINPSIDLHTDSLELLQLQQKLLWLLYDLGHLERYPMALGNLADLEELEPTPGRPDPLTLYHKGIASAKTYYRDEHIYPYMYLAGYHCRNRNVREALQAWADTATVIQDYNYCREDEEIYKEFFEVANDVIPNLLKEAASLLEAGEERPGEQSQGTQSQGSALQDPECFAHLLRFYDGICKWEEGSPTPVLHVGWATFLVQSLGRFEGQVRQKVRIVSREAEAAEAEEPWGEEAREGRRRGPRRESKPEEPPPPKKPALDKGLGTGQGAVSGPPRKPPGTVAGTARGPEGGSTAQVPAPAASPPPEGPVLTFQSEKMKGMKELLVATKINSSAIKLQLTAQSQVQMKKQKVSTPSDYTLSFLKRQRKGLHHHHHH
# How it was run: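 Terbium cryptate-labeled menin (aa 1-610, 6×His), 100 pM, preincubated 5 min with compound, then 75 nM FITC-MBM1 peptide added for 15 min at ambient temperature. Buffer: 40 mM Tris pH 7.5, 50 mM NaCl, 1 mM DTT, 0.05% Pluronic F-127, 0.5% DMSO. HTRF 520/490 ratio; 11-point threefold titration from 25 μM, IC50 from % inhibition curve.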
# [2] = target: T2, menin / FITC-MBM1 peptide (Menin/MLL) (Homo sapiens, UniProt O00255); test: Menin/MLL fluorescence polarization (FP) assay; format: binding; settings: read-out: (1) Menin FP assay (IC50 (μM))
# T2 sequence (O00255 1-610): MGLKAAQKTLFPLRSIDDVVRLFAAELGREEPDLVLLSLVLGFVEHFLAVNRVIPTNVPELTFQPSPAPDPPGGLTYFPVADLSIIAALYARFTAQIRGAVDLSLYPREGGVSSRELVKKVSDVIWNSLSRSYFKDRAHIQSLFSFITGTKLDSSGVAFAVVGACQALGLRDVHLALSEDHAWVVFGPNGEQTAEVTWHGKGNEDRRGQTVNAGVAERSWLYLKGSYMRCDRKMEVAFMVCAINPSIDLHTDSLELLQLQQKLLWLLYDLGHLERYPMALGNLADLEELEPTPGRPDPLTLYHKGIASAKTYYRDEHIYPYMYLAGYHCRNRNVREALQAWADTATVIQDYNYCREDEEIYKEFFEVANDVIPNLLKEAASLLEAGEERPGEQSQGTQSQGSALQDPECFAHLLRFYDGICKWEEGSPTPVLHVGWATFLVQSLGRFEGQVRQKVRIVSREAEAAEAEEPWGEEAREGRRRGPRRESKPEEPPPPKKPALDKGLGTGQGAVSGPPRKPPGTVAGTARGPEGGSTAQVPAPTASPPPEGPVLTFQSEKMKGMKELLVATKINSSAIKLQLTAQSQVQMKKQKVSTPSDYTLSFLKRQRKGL
# Description: Pharmacological Part 1) Menin/MLL Fluorescence Polarization Assay
# To a non-surface binding, black 384-well microtiter plate was added 50 nL 160× test compound in DMSO and 4 μL 2× menin in assay buffer (40 mM TrisHCl, pH 7.5, 50 mM NaCl, 1 mM DTT and 0.001% Tween 20). After incubation of test compound and menin for 10 min at ambient temperature, 4 μL 2×FITC-MBM1 peptide (FITC-β-alanine-SARWRPPARPGT-NH2) in assay buffer was added, the microtiter plate centrifuged at 1000 rpm for 1 min and the assay mixtures incubated for 15 min at ambient temperature. The relative amount of menin -FITC-MBM1 complex present in an assay mixture is determined by measuring the fluorescence polarization (FP) of the FITC label with a BMG Pherastar plate reader (ex. 485 nm/em. 520 nm) at ambient temperature. The final concentrations of reagents in the binding assay are 100 nM menin, 5 nM FITC-MBM1 peptide and 0.625%>DMSO in assay buffer. Dose-response titrations of test compounds are conducted using an 11 point, three-fold serial dilution scheme, starting at 31 μM.
# Compound potencies were determined by first calculating % inhibition at each compound concentration according to equation 1: % inhibition=((HC−LC)−(FPcompound−LC))/(HC−LC))*100 (Eqn 1)
# Where LC and HC are the FP values of the assay in the presence or absence of a saturating concentration of a compound that competes with FITC-MBM1 for binding to menin, and FP^compound is the measured FP value in the presence of the test compound. HC and LC FP values represent an average of at least 16 replicates per plate.
# Where Bottom and Top are the lower and upper asymptotes of the dose-response curve, respectively, IC50 is the concentration of compound that yields 50% inhibition of signal and h is the Hill coefficient.
Structure (SMILES),IC50 [1] [nM],IC50 [2] [µM]
FC(F)CN[C@@H]1CCCN(c2ncnc3sc(CC(F)(F)F)cc23)CC1 [Compound 5],9530,6.36
FC(F)CN[C@@H]1CCCN(c2ncnc3sc(CC(F)(F)F)cc23)CC1 [Compound 5a],8290,6.15
